From patent US20140322705A1, “Cancer diagnostic and cancer therapeutic” (Thomas Jefferson University, priority 2010, published 2014)
Entries after “also recorded” stand apart in the source; their conditions may differ.

Experiments:
[1] = system: MDA-MB-231 breast cancer cells; assay: MDA-MB-231 flank xenograft tumor growth; type: in vivo, athymic nude mice; settings: 500 mg/kg daily i.p.; tumor volume at 3 weeks post tumor cell injection
Experimental: A xenograft model was employed in which MDA-MB-231 breast cancer cells injected into the flanks of athymic nude mice to evaluate the potential tumor promoting properties of the products of aerobic glycolysis (such as 3-hydroxy-butyrate and L-lactate). Tumor growth was assessed by measuring tumor volume, at 3-weeks post tumor cell injection. During this time period, mice were administered either PBS alone, or PBS containing 3-hydroxy-butyrate (500 mg/kg) or L-lactate (500 mg/kg), via daily intra-peritoneal (i.p.) injections. Note that 3-hydroxy-butyrate is sufficient to promote an ˜2.5-fold increase in tumor growth, relative to the PBS-alone control. Under these conditions.
To evaluate the potential tumor promoting properties of the products of aerobic glycolysis (such as 3-hydroxy-butyrate and L-lacate), a xenograft model employing MDA-MB-231 breast cancer cells injected into the flanks of athymic nude mice was used. Tumor growth was assessed by measuring tumor volume, at 3-weeks post tumor cell injection. During this time period, mice were administered either PBS alone, or PBS containing 3-hydroxy-butyrate (500 mg/kg) or L-lactate (500 mg/kg), via daily intra-peritoneal (i.p.) injections.

MDA-MB-231 cells [2] = assay: Lung colonization (metastasis) assay, tail vein injection; type: in vivo, athymic nude mice; settings: 7 weeks post-injection; India ink staining
Experimental: To examine the effect of 3-hydroxy-butyrate and L-lactate on cancer cell metastasis, a well-established lung colonization assay was used, where MDA-MB-231 cells are injected into the tail vein of athymic nude mice. After 7 weeks post-injection, the lungs were harvested and the metastases were visualized with India ink staining. Using this approach, the lung parenchyma stains black, while the tumor metastatic foci remain unstained, and appear white. The number of metastases per lung lobe was scored. Note that relative to PBS-alone, the administration of L-lacate stimulated the formation of metastatic foci by ˜10-fold. Under these conditions, 3-hydroxy-butryate had no effect on metastasis formation. *p<0.01, PBS alone versus L-lactate (Student's t-test and ANOVA); *p<0.05, PBS alone versus L-lactate (Mann-Whitney test).
The effect of 3-hydroxy-butyrate and L-lactate on cancer cell metastasis were measured. For this purpose, a well-established lung colonization assay was used, where MDA-MB-231 cells are injected into the tail vein of athymic nude mice. After 7 weeks post-injection, the lungs were harvested and the metastases were visualized with India ink staining. In this method, the lung parenchyma stains black, while the tumor metastatic foci remain unstained, and appear white. For quantitation purposes. the number of metastases per lung lobe was scored.

[3] = system: MDA-MB-231 breast cancer cells; assay: Tumor vascularity by CD31 immuno-staining of xenograft tumors; type: in vivo, athymic nude mice; settings: 500 mg/kg daily i.p.; primary xenograft tumors
Experimental: Tumor angiogenesis could account for the tumor-promoting properties of 3-hydroxy-butyrate. Thus, the status of tumor vascularity was evaluated using antibodies directed against CD31. However, the vascular density (number of vessels per field) was not increased by the administration of either 3-hydroxy-butyrate or L-lactate. Thus, other mechanisms, such as the “Reverse Warburg Effect” may be operating to increase tumor growth. n.s., not significant.
One mechanism that could account for the tumor-promoting properties of 3-hydroxy-butyrate is increased tumor angiogenesis. Thus, the status of tumor vascularity using antibodies directed against CD31 was evaluated. […] Thus, other mechanisms, such as the “Reverse Warburg Effect” may be operating to increase tumor growth.

MDA-MB-231 cells [4] = assay: Modified Boyden Chamber (Transwell) cell migration assay; type: cell-based, human; settings: 10 mM in lower chamber
Experimental: 3-hydroxy-butyrate or L-lactate can function as chemo-attractants. shown using a modified “Boyden Chamber” assay, employing Transwell cell culture inserts. MDA-MB-231 cells were placed in the upper chambers, and 3-hydroxy-butyrate (10 mM) or L-lactate (10 mM) were introduced into the lower chambers. Note that both 3-hydroxy-butyrate and L-lactate promoted cancer cell migration by nearly 2-fold. *p<0.05, control (vehicle alone) versus 3-hydroxy-butyrate or L-lactate (Student's t-test).
Next, whether 3-hydroxy-butyrate or L-lactate can function as chemo-attractants was assessed, using a modified “Boyden Chamber” assay, employing Transwell cell culture inserts. MDA-MB-231 cells were placed in the upper chambers, and 3-hydroxy-butyrate (10 mM) or L-lactate (10 mM) were introduced into the lower chambers. […] Thus, the metabolic products of aerobic glycolysis can also function as chemo-attractants for cancer cells, probably via a form of nutrient sensing.

MCF7 cancer cells = settings: L-lactate added to culture media; cited from earlier work

Compound | increase in tumor growth (tumor volume) relative to PBS-alone control [1] | formation of lung metastatic foci (metastases per lung lobe) relative to PBS-alone (MDA-MB-231 cells [2]) | vascular density (number of vessels per field), CD31 [3] | promotion of cancer cell migration versus vehicle alone (MDA-MB-231 cells [4]) | appearance of lung metastatic foci versus PBS-alone controls (representative images) (MDA-MB-231 cells [2]) | mitochondrial mass (MCF7 cancer cells)
CC(O)CC(=O)O (stereo not shown) [3-hydroxy-butyrate] | ~2.5 fold | no effect | not increased; also recorded: without any significant increases | ~2 fold | – | –
C[C@H](O)C(=O)O [L-lactate] | no significant effect; also recorded: did not increase | ~10 fold | not increased | ~2 fold | more numerous, and are also larger in size | dramatically increase
